The values that follow come from publication PMC6541511 (Organic & biomolecular chemistry, 2019).

Data set [1] deals with MDA-MB-231. The experiment in a line: CellTiterGlo. Particulars: Homo sapiens, MDA-MB-231, read-out: MDA-MB-231 EC50. In kind it is cell-based. Background: ATP-based viability assays read luminescence as a measure of living cells.
The subject of data set [2] is SUM149. The experiment in a line: CellTiterGlo. It is filed as cell-based. Particulars: SUM149, read-out: SUM149 EC50.
Data set [3] deals with HMEC. The experiment in a line: CellTiterGlo. It is filed as cell-based. Particulars: Homo sapiens, read-out: HMEC EC50.
The nature of data set [4]: physchem.
In data set [5] the test system is T-47D. The experiment in a line: CellTiterGlo. In kind it is cell-based. Particulars: Homo sapiens, T47D, read-out: T-47D EC50.
Data set [6] in a line: Solubility / precipitation. Particulars: 5–10 mM concentrations in DMSO, RT.

As usually defined, the EC50 is the midpoint of the concentration-response curve. For the compound `CCCCCOC(=O)Nc1nc(=O)n([C@@H]2O[C@H](C)[C@@H](O)[C@H]2O)cc1F` [Capecitabine], the half-maximal effective concentration (EC50) stood at 5 µM in data set [1], 5 µM in data set [2] and 10 µM in data set [3].

Take `COc1cccc2c1C(=O)c1c(O)c3c(c(O)c1C2=O)C[C@@](O)(C(=O)CO)C[C@@H]3O[C@H]1C[C@H](N)[C@H](O)[C@H](C)O1` [Doxorubicin]: the EC50 is 1 µM in data set [1], 1 µM in data set [2] and above 10 µM in data set [3].

Consider `CC(=O)O[C@H]1C(=O)[C@@]2(C)[C@H]([C@H](OC(=O)c3ccccc3)[C@]3(O)C[C@H](OC(=O)[C@H](O)[C@@H](NC(=O)c4ccccc4)c4ccccc4)C(C)=C1C3(C)C)[C@]1(OC(C)=O)CO[C@@H]1C[C@@H]2O` [Taxol], for which the EC50 in data set [1] is 2 µM; in data set [2], 0.01 µM; in data set [3] it was above 10 µM.

Broadly, the solubility is the dissolved amount per volume that the medium holds. As for `CC(C)[C@@H](C)/C=C/[C@@H](C)[C@H]1CC[C@@H]2[C@]1(C)CC[C@H]1[C@]23C=C[C@]2(C[C@@H](O)CC[C@]12C)OO3` [compound 3, ergosterol peroxide], in data set [4], the solubility was below 50 µM. Moreover, the concentration for a half-maximal effect (EC50) was 19 µM in data set [5], 18 µM in data set [1], 9 µM in data set [2] and above 20 µM in data set [3]. Besides, the “time after which precipitation occurs” value in data set [6] stood at 168 h.
